# Source: US20230065953A1, “NOVEL HETEROARYL-TRIAZOLE COMPOUNDS AS PESTICIDES” (Bayer Aktiengesellschaft, priority 2019, published 2023)
# Key:
# Assay type in all cases: in vivo
# [1] = test system: Rhipicephalus microplus larvae (strain Parkhurst, resistant against synthetic pyrethroids); assay: Rhipicephalus (Boophilus) microplus in-vitro contact test, larval cattle tick; conditions: 5 μg/cm^2 (=500 g/ha), after 48 hours, read-out: efficacy (larvae dead or moribund)
# Procedure, shortened: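 Larvae (20–50 per tube) were exposed for 48 h at 27 °C and 85% relative humidity to dried acetone residues lining glass tubes, where 900 ppm corresponds to 5 μg/cm^2. Loss of negative geotaxis defined dead or moribund larvae, expressed as percent efficacy.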
# [2] = test system: cattle ticks (Rhipicephalus microplus) strain Parkhurst, SP-resistant; assay: Rhipicephalus (Boophilus) microplus dip test; conditions: 100 ppm, egg deposition after 7 days
# Description: Rhipicephalus (Boophilus) Microplus—Dip Test
# Test animal: cattle ticks (Rhipicephalus microplus) strain Parkhurst, SP-resistant
# Solvent: dimethyl sulfoxide
# To produce a suitable preparation of active compound, 10 mg of active compound are dissolved in 0.5 mL solvent, and the concentrate is diluted with water to the desired concentration.
# This compound solution is pipetted into tubes. 8-10 engorged, adult, female cattle ticks (Rhipicephalus microplus) are placed in perforated tubes. These tubes are immersed in the aqueous compound solution until the ticks are completely moistened. After the liquid has drained off, the ticks are transferred to a filter paper in a plastic tray and stored in a climate chamber.
# After 7 days egg deposition of fertile eggs is monitored. Eggs where fertility is not visible are stored in a climate chamber till hatching after about 42 days. An efficacy of 100% means all eggs are infertile; 0% means all eggs are fertile.
# [3] = test system: adult mosquitoes Aedes aegypti strain MONHEIM; assay: Aedes aegypti test (AEDSAE surface treatment & contact assay); conditions: 24 hours after contact, read-out: efficacy (mortality); for mortality at 4 mg/m2: surface concentration 4 mg/m^2, 30 min exposure; for mortality at 20 mg/m2: surface concentration 20 mg/m^2, 30 min exposure
# Procedure, shortened: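 Test compound in acetone (2 mg/ml) with 2000 ppm rapeseed oil methyl ester was dried onto a glazed tile. Adult Aedes aegypti MONHEIM were exposed to the treated surface for 30 minutes. Percent mortality was scored 24 hours after contact.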
# [4] = test system: adult mosquitoes Culex quinquefasciatus strain P00; assay: whole plant or invertebrate; conditions: read-out: efficacy (mortality)
# Description: Culex quinquefasciatus Test (CULXFA Surface Treatment & Contact Assay) • Solvent: Aceton+2000 ppm rapeseed oil methyl ester (RME)
# (§1) In order to produce a sufficient, active ingredient containing solution it is necessary to solve the test compound in the solvent-mix (acetone at 2 mg/ml/RME 2 OOOppm). This solution is pipetted onto a glazed tile and after evaporation of the acetone, adult mosquitoes of the species Culex quinquefasciatus strain P00 are placed onto the dried surface. The exposure time is 30 minutes.
# (§2) Mortality in percent (%) is determined 24 hours after contact of the insects to the treated surface. 100% mortality means that all tested insects are dead, whereas 0% means that no insect died.
# [5] = test system: adult mosquitoes Anopheles funestus strain FUMOZ-R; assay: Anopheles funestus test (ANPHFU surface treatment & contact assay); conditions: surface concentration 4 mg/m^2, 30 min exposure, 24 hours after contact, read-out: efficacy (mortality)
# Description: Anopheles funestus Test (ANPHFU Surface Treatment & Contact Assay) • Solvent: Aceton+2000 ppm rapeseed oil methyl ester (RME)
# as §1, with “2000 ppm).” for “2 OOOppm).”, “Anopheles funestus” for “Culex quinquefasciatus”, “FUMOZ-R (Hunt et al., Med. Vet. Entomol. 2005 September; 19(3): 271-275)” for “P00”
# as §2
# [6] = test system: green peach aphid (Myzus persicae); assay: Myzus persicae spray test; conditions: foliar, 120 h, Chinese cabbage leaf disks, after 5 days
# Procedure, shortened: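 Percent mortality read 5 days after spraying, where 100% is total kill and 0% none. The spray contained compound in acetone plus dimethylformamide, diluted with 1000 ppm emulsifier water. It was applied to Brassica pekinensis leaf disks carrying mixed-instar green peach aphids.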
# [7] = test system: brown planthopper (Nilaparvata lugens); assay: Nilaparvata lugens spray test; conditions: 96 h, 100 g/ha, rice plants, after 4 days
# Procedure, shortened: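 Compound was formulated in acetone/DMF and diluted in water with 1000 ppm alkylarylpolyglycol ether emulsifier. Rice plants were sprayed with this preparation, then infested with brown planthoppers. Percent mortality was scored after 4 days.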
# [8] = test system: larvae of the southern green stink bug (Nezara viridula); assay: Nezara viridula spray test; conditions: in Hordeum vulgare, 96 h
# Procedure, shortened: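 Mortality (%) of stink bug larvae on treated barley (Hordeum vulgare) was scored 4 days after infestation. Test solutions came from an acetone/DMF concentrate diluted with water containing 1000 ppm emulsifier and were sprayed onto plants before larvae were added.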
SMILES,pest or weed control at 5 µg/cm2 [1] [%],efficacy (infertile eggs) [2] [%],mortality at 4 mg/m2 [3] [%],mortality at 20 mg/m2 [3] [%],mortality at 4 mg/m2 [4] [%],mortality at 4 mg/m2 [5] [%],mortality at 100 g/ha [6] [%],mortality at 100 g/ha [7] [%],mortality at 100 g/ha [8] [%]
C[C@H](NC(=O)c1cc(C(F)(F)F)cc(C(F)(F)F)c1)c1ncnn1-c1ncc(C#N)s1 [I-2],100,100,80 to 100,80 to 100,80 to 100,80 to 100,,,
"Cc1nc([C@H](C)NC(=O)c2cc(C(F)(F)F)cc(C(F)(F)F)c2)n(-c2ncc(C(=O)N(C)C)s2)n1 [I-5, 2-(5-{(1S)-1-[3,5-bis(trifluoromethyl)benzamido]ethyl}-3-methyl-1H-1,2,4-triazol-1-yl)-N,N-dimethyl-1,3-thiazole-5-carboxamide]",100,100,,,,,90,100,
"Cc1nc([C@H](C)NC(=O)c2cc(C(F)(F)F)cc(C(F)(F)F)c2)n(-c2ncc(C(N)=O)s2)n1 [I-21, 2-(5-{(1S)-1-[3,5-bis(trifluoromethyl)benzamido]ethyl}-3-methyl-1H-1,2,4-triazol-1-yl)-1,3-thiazole-5-carboxamide]",100,,80 to 100,80 to 100,,,100,,100
Cc1nc([C@H](C)NC(=O)c2cc(C(F)(F)F)cc(C(F)(F)F)c2)n(-c2ncc(C(=O)N(C)CC3CC3)s2)n1 [I-4],100,,,80 to 100,,,90,90,
Cc1nc([C@H](C)NC(=O)c2cc(C(F)(F)F)cc(C(F)(F)F)c2)n(-c2ncc(C(=O)N(C)CC#N)s2)n1 [I-9],100,100,80 to 100,80 to 100,,,100,100,90
CCN(C)C(=O)c1cnc(-n2nc(C)nc2[C@H](C)NC(=O)c2cc(C(F)(F)F)cc(C(F)(F)F)c2)s1 [I-6],100,100,80 to 100,,,,100,100,
